Test results published in ChEMBL document CHEMBL1201862, “PubChem BioAssay data set” (2004).
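Dose response: 5 concentrations. Exposure: 48 h. Format: 96-well plates. Endpoint: linear interpolation; highest concentration if not reached. Abbreviation: GI50, concentration required for 50% inhibition of growth.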 Calls of active or inactive are those of the source. Cut-off read from the data, not from the text of the source: active = GI50 up to about 1.1 µM and inactive = higher. Peptide text beside a SMILES is read from it.

What was measured:
Assay in all cases: DTP human tumour cell line panel, 48 h
HT-29 = tested on: HT-29
SW-620 = tested on: SW-620
MDA-MB-231 = tested on: MDA-MB-231
SK-MEL-5 = tested on: SK-MEL-5
MCF7 = tested on: MCF7
LOX IMVI = tested on: LOX IMVI
SF-268 = tested on: SF-268
SNB-75 = tested on: SNB-75
UACC-62 = tested on: UACC-62
SF-539 = tested on: SF-539
NCI-H522 = tested on: NCI-H522
UO-31 = tested on: UO-31
NCI-H23 = tested on: NCI-H23
OVCAR-8 = tested on: OVCAR-8
TK-10 = tested on: TK-10
CAKI-1 = tested on: CAKI-1
K562 = tested on: K562
SF-295 = tested on: SF-295
ACHN = tested on: ACHN
SR = tested on: SR

Measured: GI50

O=S(=O)(O)c1cc(Nc2ccnc3ccccc23)c2c(S(=O)(=O)O)cc(S(=O)(=O)O)cc2c1
inactive: HT-29 > 100 µM | SW-620 42.1 µM | MDA-MB-231 > 100 µM | SK-MEL-5 > 100 µM | MCF7 > 100 µM | LOX IMVI > 100 µM | SF-268 > 100 µM | SNB-75 > 100 µM | UACC-62 > 100 µM | SF-539 > 100 µM | NCI-H522 > 100 µM | UO-31 > 100 µM | NCI-H23 > 100 µM | OVCAR-8 > 100 µM | TK-10 > 100 µM | CAKI-1 > 100 µM

c1ccc(/N=C(\N2CCCC2)N(CCN2CCCC2)c2ccccc2)cc1
inactive: K562 3.8 µM | SF-295 6.32 µM | HT-29 1.84 µM | SW-620 11.4 µM | SK-MEL-5 12.2 µM | MCF7 13.5 µM | LOX IMVI 2.86 µM | ACHN 40 µM | SF-268 > 10 µM | SNB-75 14.4 µM | UACC-62 16.6 µM | NCI-H522 11.3 µM | UO-31 14.8 µM | NCI-H23 11.1 µM | OVCAR-8 24.4 µM | TK-10 30.8 µM | SR 13.2 µM | CAKI-1 53.5 µM

CCOC(=O)C(C(=O)OCC)C(NC(=O)Nc1cc(C(F)(F)F)ccc1OC)(C(F)(F)F)C(F)(F)F
inactive: K562 24.2 µM | SF-295 23.2 µM | HT-29 35.8 µM | SW-620 24.6 µM | MDA-MB-231 17.4 µM | SK-MEL-5 19.4 µM | MCF7 37.2 µM | LOX IMVI 29.8 µM | ACHN 29.1 µM | SF-268 36.4 µM | UACC-62 22.5 µM | SF-539 19.5 µM | NCI-H522 22.3 µM | UO-31 21 µM | NCI-H23 35.3 µM | OVCAR-8 31.6 µM | TK-10 59 µM | CAKI-1 29.4 µM

COC(=O)[C@H]1NC(=O)CCSSC1(C)C
inactive: K562 > 100 µM | SF-295 > 100 µM | HT-29 > 100 µM | SW-620 > 100 µM | MDA-MB-231 > 100 µM | SK-MEL-5 > 100 µM | MCF7 > 100 µM | LOX IMVI > 100 µM | ACHN > 100 µM | SF-268 > 100 µM | UACC-62 > 100 µM | SF-539 > 100 µM | NCI-H522 > 100 µM | UO-31 > 100 µM | NCI-H23 > 100 µM | OVCAR-8 > 100 µM | TK-10 > 100 µM | CAKI-1 > 100 µM

COC(=O)[C@H](Cc1ccccc1)NC(=O)c1ccc(CNC(=O)/C=C/c2ccc(-c3ccccc3)cc2)cc1
inactive: K562 77.1 µM | SF-295 19.7 µM | HT-29 3.71 µM | SW-620 > 100 µM | MDA-MB-231 22.1 µM | SK-MEL-5 > 100 µM | MCF7 > 100 µM | ACHN > 100 µM | SF-268 15.2 µM | SNB-75 10.5 µM | UACC-62 44.2 µM | UO-31 > 100 µM | NCI-H23 27.8 µM | OVCAR-8 7.1 µM | TK-10 68.1 µM | CAKI-1 65 µM

O=C(Nc1ccccc1)c1cc2ccccc2c(/N=N/c2ccc([N+](=O)[O-])cc2)c1O
inactive: K562 35.6 µM | SF-295 38.7 µM | HT-29 > 100 µM | SW-620 > 100 µM | MDA-MB-231 71.9 µM | SK-MEL-5 > 100 µM | LOX IMVI > 100 µM | ACHN > 100 µM | SF-268 > 100 µM | SNB-75 73.5 µM | UACC-62 65.2 µM | NCI-H522 > 100 µM | UO-31 > 100 µM | NCI-H23 33.2 µM | OVCAR-8 > 100 µM | TK-10 56.1 µM | CAKI-1 > 100 µM

COc1ccccc1N1C(=O)CSC1c1c[nH]c2ccccc12 (configuration not stated)
inactive: K562 > 100 µM | SF-295 > 100 µM | HT-29 > 100 µM | SW-620 > 100 µM | MDA-MB-231 3.69 µM | SK-MEL-5 > 100 µM | MCF7 > 100 µM | ACHN > 100 µM | SF-268 42.8 µM | SNB-75 27.6 µM | UACC-62 > 100 µM | SF-539 > 100 µM | UO-31 58.1 µM | NCI-H23 > 100 µM | OVCAR-8 > 100 µM | TK-10 > 100 µM

CC(C)CC(NP(=O)(O)OC1OC(C)C(O)C(O)C1O)C(=O)NC(Cc1c[nH]c2ccccc12)C(=O)O (configuration not stated)
inactive: K562 > 100 µM | SF-295 > 100 µM | HT-29 > 100 µM | SW-620 > 100 µM | MDA-MB-231 > 100 µM | SK-MEL-5 > 100 µM | MCF7 > 100 µM | SF-268 > 100 µM | SNB-75 > 100 µM | UACC-62 > 100 µM | SF-539 > 100 µM | NCI-H522 > 100 µM | UO-31 > 100 µM | NCI-H23 > 100 µM | OVCAR-8 > 100 µM | CAKI-1 > 100 µM

CCNCCNC(=O)c1ccc(I)cc1
inactive: K562 > 100 µM | HT-29 > 100 µM | SW-620 > 100 µM | SK-MEL-5 > 100 µM | MCF7 > 100 µM | LOX IMVI > 100 µM | ACHN > 100 µM | SF-268 > 100 µM | SNB-75 34.4 µM | UACC-62 > 100 µM | SF-539 > 100 µM | UO-31 58.6 µM | NCI-H23 > 100 µM | OVCAR-8 > 100 µM | TK-10 > 100 µM | SR > 100 µM | CAKI-1 > 100 µM

Nc1ncnc2c1nc(O)n2-c1ccccc1
inactive: K562 > 100 µM | SF-295 > 100 µM | HT-29 > 100 µM | SW-620 > 100 µM | SK-MEL-5 > 100 µM | MCF7 > 100 µM | LOX IMVI > 100 µM | ACHN > 100 µM | SF-268 > 100 µM | UACC-62 > 100 µM | SF-539 > 100 µM | UO-31 57.7 µM | NCI-H23 > 100 µM | OVCAR-8 > 100 µM | TK-10 > 100 µM | SR > 100 µM | CAKI-1 78.9 µM

Cc1ccc(NC2=CC(=O)C(NO)c3ccccc32)cc1 (configuration not stated)
inactive: SF-295 3.98 µM | HT-29 4.35 µM | SW-620 3.24 µM | MDA-MB-231 2.21 µM | SK-MEL-5 1.49 µM | MCF7 2.66 µM | LOX IMVI 2.93 µM | ACHN 2.84 µM | SF-268 3.32 µM | SNB-75 3.37 µM | UACC-62 1.51 µM | SF-539 3.01 µM | UO-31 2.82 µM | NCI-H23 1.64 µM | OVCAR-8 1.63 µM | TK-10 16.8 µM | CAKI-1 2.5 µM

N#Cc1c(-c2ccccc2)c(/C=N/c2cccc(C(F)(F)F)c2)c(=O)n2c1[nH]c1ccccc12
inactive: SF-295 46.2 µM | SW-620 30.2 µM | MDA-MB-231 42.3 µM | SK-MEL-5 52 µM | MCF7 35.6 µM | LOX IMVI 32.6 µM | ACHN 30.1 µM | SF-268 35.6 µM | SNB-75 46 µM | SF-539 16.7 µM | NCI-H522 15.1 µM | UO-31 7.62 µM | NCI-H23 34.9 µM | OVCAR-8 24.8 µM | TK-10 32.9 µM | CAKI-1 2.07 µM

CC(C)CC(NC(=O)C(CC(C)C)NC(=O)C(Cc1c[nH]cn1)NC(=O)C(C)NC(=O)C(NC(=O)C(C)NC(=O)C(Cc1c[nH]c2ccccc12)NC(=O)C(CCC(=O)O)NC(=O)C(N)Cc1ccccc1)C(C)C)C(N)=O (configuration not stated) (H-FEWAVAHLL-NH2; configuration not given here)
inactive: K562 > 12.5 µM | SF-295 > 12.5 µM | HT-29 > 12.5 µM | SW-620 > 12.5 µM | MDA-MB-231 > 12.5 µM | SK-MEL-5 > 12.5 µM | MCF7 > 12.5 µM | LOX IMVI > 12.5 µM | ACHN > 100 µM | SF-268 > 12.5 µM | SNB-75 > 100 µM | UACC-62 > 12.5 µM | SF-539 > 12.5 µM | NCI-H522 > 12.5 µM | UO-31 > 12.5 µM | NCI-H23 > 12.5 µM | OVCAR-8 > 12.5 µM | CAKI-1 > 12.5 µM

COc1ccc(C(c2c(O)c3ccccc3n(C)c2=O)c2c(O)c3ccccc3n(C)c2=O)cc1
inactive: K562 27.9 µM | SF-295 36.5 µM | HT-29 24.3 µM | SW-620 57.4 µM | SK-MEL-5 20.2 µM | LOX IMVI 37.2 µM | ACHN 46.5 µM | SF-268 34.1 µM | SNB-75 16.1 µM | UACC-62 13.2 µM | SF-539 24.5 µM | NCI-H522 9.77 µM | UO-31 36.5 µM | NCI-H23 24.5 µM | OVCAR-8 81.1 µM | TK-10 38.2 µM | SR 51.4 µM | CAKI-1 38.2 µM

C/C=N\n1c(C)n[nH]c1=O
inactive: K562 > 100 µM | SF-295 > 100 µM | HT-29 > 100 µM | SW-620 > 100 µM | SK-MEL-5 > 100 µM | MCF7 > 100 µM | LOX IMVI > 100 µM | ACHN > 100 µM | SF-268 > 100 µM | SNB-75 > 100 µM | UACC-62 > 100 µM | SF-539 > 100 µM | NCI-H522 > 100 µM | UO-31 > 100 µM | NCI-H23 > 100 µM | OVCAR-8 > 100 µM | TK-10 > 100 µM | SR > 100 µM | CAKI-1 > 100 µM
